In patent US20070004759A1, “Fungicidal mixtures for controlling rice pathogens” (priority 2004, published 2007):

System: Cochliobolus miyabeanus
Assay: Activity against brown spot of rice caused by Cochliobolus miyabeanus, protective application
Type: in vivo
Settings: individual active compound, rice seedlings cultivar Tai-Nong 67, protective spray, evaluated six days after inoculation
Protocol: The active compounds, separately or jointly, were prepared as a stock solution with 0.25% by weight of active compound in acetone or DMSO. 1% by weight of the emulsifier Uniperol® EL (wetting agent having emulsifying and dispersing action based on ethoxylated alkylphenols) was added to this solution, and the solution was diluted with water to the desired concentration.
Leaves of potted rice seedlings of the cultivar “Tai-Nong 67” were sprayed to runoff point with an aqueous suspension of the concentration of active compound stated below. The next day, the plants were inoculated with an aqueous spore suspension of Cochliobolus miyabeanus. The test plants were then placed in climatized chambers at 22-24° C. and 95-99% relative atmospheric humidity for six days. The extent of the development of the infection on the leaves was then determined visually.
Evaluation is carried out by determining the percentage of infected plants. These percentages were converted into efficacies.
The efficacy (E) is calculated as follows using Abbot's formula: E=(1−α/β)·100
α corresponds to the fungicidal infection of the treated plants in % and
β corresponds to the fungicidal infection of the untreated (control) plants in %
An efficacy of 0 means that the infection level of the treated plants corresponds to that of the untreated control plants; an efficacy of 100 means that the treated plants are not infected.
The expected efficacies of mixtures of active compounds are determined using Colby's formula (Colby, R. S., Weeds, 15, 20-22, 1967) and compared with the observed efficacies.
Colby's formula: E=x+y−x·y/100 • E expected efficacy, expressed in % of the untreated control, when using the mixture of the active compounds A and B at the concentrations a and b • x efficacy, expressed in % of the untreated control, when using the active compound A at the concentration a • y efficacy, expressed in % of the untreated control, when using the active compound B at the concentration b

Row | SMILES | Efficacy in % of the untreated control (4 ppm in the spray liquor) | Efficacy in % of the untreated control (16 ppm in the spray liquor)
1 | C[C@H](Nc1c(-c2c(F)cc(F)cc2Cl)c(Cl)nc2ncnn12)C(F)(F)F [B] | 5% | 41%
2 | CC1(C(=O)Nc2ccc(O)c(Cl)c2Cl)CCCCC1 [compound II, N-(2,3-dichloro-4-hydroxyphenyl)-1-methylcyclohexanecarboxamide] | 0% | 0%
3 | CC1CCN(c2c(-c3c(F)cccc3Cl)c(Cl)nc3ncnn23)CC1 [A] | 29% | 53%
4 | CC1CCN(c2c(-c3c(F)cc(F)cc3F)c(Cl)nc3ncnn23)CC1 [compound I, 5-chloro-7-(4-methylpiperidin-1-yl)-6-(2,4,6-trifluorophenyl)-[1,2,4]triazolo[1,5-a]pyrimidine] | 5% | 17%
